According to ChEMBL document CHEMBL1137519, “Elucidation of the RNA target of linezolid by using a linezolid-neomycin B heteroconjugate and genomic SELEX” (Bioorg Med Chem, 2007):

What was measured:
[1] = Binding affinity to Escherichia coli K12 stem-loop region L2-10 RNA aptamers using luminescence spectrometer by anisotropy technique
[2] = Binding affinity to Escherichia coli K12 stem-loop region L2-11 RNA aptamers using luminescence spectrometer by anisotropy technique
[3] = Binding affinity to Escherichia coli K12 stem-loop region L2-12 RNA aptamers using luminescence spectrometer by anisotropy technique
[4] = Binding affinity to Escherichia coli K12 stem-loop region L2-12 RNA aptamers using BIAcore 3000 instrument
[5] = Binding affinity to Escherichia coli K12 stem-loop region L2-11 RNA aptamers using BIAcore 3000 instrument

Structure (SMILES): CC(=O)NC[C@@H]1CN(c2ccc(N3CCN(C(=O)CSCCCCCCSC[C@@H]4O[C@H](O[C@@H]5[C@@H](O)[C@H](N)C[C@H](N)[C@H]5O[C@H]5O[C@H](CN)[C@@H](O)[C@H](O)[C@H]5N)[C@@H](O)[C@H]4O[C@@H]4O[C@H](CN)[C@H](O)[C@@H](O)[C@@H]4N)CC3)c(F)c2)C(=O)O1
- Kd [1]: 90 nM
- Kd [2]: 260 nM
- Kd [3]: 66 nM
- Kd [4]: 670 nM
- Kd [5]: 960 nM

Structure (SMILES): NC[C@@H]1O[C@H](O[C@H]2[C@@H](O)[C@H](O[C@@H]3[C@@H](O)[C@H](N)C[C@H](N)[C@H]3O[C@H]3O[C@H](CN)[C@@H](O)[C@H](O)[C@H]3N)O[C@@H]2CO)[C@H](N)[C@@H](O)[C@@H]1O (stereo in doubt) [FRAMYCETIN]
- Kd [1]: 308 nM
- Kd [2]: 313 nM
- Kd [3]: 320 nM
- Kd [4]: 2300 nM
- Kd [5]: 6300 nM
